# From paper PMC2747801 (European journal of pharmaceutical sciences : official …, 2009)
# Several values for one entry are separate records, joined by “and”; a condition that tells them apart may be missing. Equal entries are not always repeated. Where two headings read alike, the source gives them in different places.
# Columns and labels:
# [1] = test system: P-glycoprotein (Pgp); settings: male, CF-1, mouse, not told, pH 7.4
# [2] = for Pgp Mutant Kin / logPS(obs): male, pH 7.4; for logPS(obs) / brain uptake clearance: in vivo
# [3] = PAMPA intrinsic permeability, cited from earlier work
# [4] = male, CF-1, mouse, in vivo, 1 µM, pH 7.4
# [5] = cited from earlier work
# [6] = test system: P-glycoprotein (Pgp); test: Pgp effect: ratio of Pgp-deficient to wild-type uptake clearance; settings: for Pgp Effect: ratio of Pgp-deficient Kin to wild-type Kin, CF-1 mice
# [7] = cited from earlier work; remark: listed apart in the source
# [8] = rodent and comment not printed ref Fernstermacher 1989; cited from earlier work
# [9] = rat, cited from earlier work
# [10] = rat, 5-50uM self-inhibition, training set ref Summerfield et al. 2007
smiles,measurement,setting,value
COc1ccc(CCN2CCC(Nc3nc4ccccc4n3Cc3ccc(F)cc3)CC2)cc1 [astemizole],Pgp Effect,[1],1.1
same,Pgp Mutant Kin,"[2]; CF-1, mouse, 1 µM",123 mL/100g/min
same,logPS(obs),"[2]; CF-1, mouse, 1 µM",−1.55 mL/g/s
same,logPo^PAMPA,[3]; ref Bendels et al. 2006,1.00
same,Wild-Type Kin,[4],112 mL/100g/min
CC(C)(C)NC(=O)[C@@H]1CN(Cc2cccnc2)CCN1C[C@@H](O)C[C@@H](Cc1ccccc1)C(=O)N[C@H]1c2ccccc2C[C@H]1O [indinavir],Wild-Type Kin,[4],0.52 mL/100g/min
CN(C)CCCN1c2ccccc2Sc2ccc(Cl)cc21 [chlorpromazine],Pgp Mutant Kin,"[2]; CF-1, mouse, 1 µM",295 mL/100g/min
same,logPS(obs),"[2]; CF-1, mouse, 1 µM",−1.08 mL/g/s
same,brain uptake clearance,[2]; mouse,> 255 mL/100 g/min
same,logPS(obs),[5]; [10],−1.20 mL/g/s
same,logPo^PAMPA,"[3]; ref Avdeef et al. 2004, Ruell et al. 2004",1.62
same,Pgp Effect,[6],1.0
same,Wild-Type Kin,[4],300 mL/100g/min
CN[C@H]1CC[C@@H](c2ccc(Cl)c(Cl)c2)c2ccccc21 [sertraline],Pgp Effect,[6],1.0
same,logPo^PAMPA,,2.10
CN(C)CCC=C1c2ccccc2CCc2ccccc21 [amitriptyline],Pgp Mutant Kin,"[2]; CF-1, mouse, 1 µM",408 mL/100g/min
same,logPS(obs),"[2]; CF-1, mouse, 1 µM",−0.66 mL/g/s
same,brain uptake clearance,[2]; mouse,> 255 mL/100 g/min
same,logPS(obs),[5]; [10],−1.05 mL/g/s
same,logPo^PAMPA,[3]; ref Avdeef et al. 2006,1.30
same,Pgp Effect,[6],1.2
same,Wild-Type Kin,[4],335 mL/100g/min
CN/C(=N/CCSCc1nc[nH]c1C)NC#N [cimetidine],logPS(obs),[7]; mouse ref Murakami et al. 2000,−4.10 mL/g/s
same,logPS(obs),[5]; rat ref Murakami et al. 2000,−4.05 mL/g/s
same,logPo^PAMPA,[3]; ref Avdeef et al. 2005,−6.20
CC(C)(C)c1ccc(C(O)CCCN2CCC(C(O)(c3ccccc3)c3ccccc3)CC2)cc1 (stereo not shown) [terfenadine],Pgp Mutant Kin,"[2]; CF-1, mouse, 1 µM",129 mL/100g/min
same,logPS(obs),"[2]; CF-1, mouse, 1 µM",−1.52 mL/g/s
same,logPo^PAMPA,"[3]; ref Ruell et al. 2004, Avdeef et al. 2007",2.63
same,Wild-Type Kin,[4],126 mL/100g/min
CN1CCN(C2=Nc3cc(Cl)ccc3Nc3ccccc32)CC1 [clozapine],Pgp Mutant Kin,"[2]; CF-1, mouse, 1 µM",90 mL/100g/min
same,logPS(obs),"[2]; CF-1, mouse, 1 µM",−1.73 mL/g/s
same,Wild-Type Kin,[4],118 mL/100g/min
same,logPo^PAMPA,,−0.39
CC[C@]1(O)C[C@H]2CN(CCc3c([nH]c4ccccc34)[C@@](C(=O)OC)(c3cc4c(cc3OC)N(C=O)[C@H]3[C@@](O)(C(=O)OC)[C@H](OC(C)=O)[C@]5(CC)C=CCN6CC[C@]43[C@@H]65)C2)C1 [vincristine],logPS(obs),[7]; mouse ref Murakami et al. 2000,−4.12 mL/g/s
same,logPS(obs),"[7]; mouse, mdr1a(−/−) ref Cisternino et al. 2001",−3.82 mL/g/s
same,logPS(obs),"[7]; mouse, mrp1(−/−), footnote x ref Cisternino et al. 2003",−4.25 mL/g/s
same,logPS(obs),[5]; rat ref Greig et al. 1990,−3.91 mL/g/s
same,logPS(obs),[5]; rat ref Murakami et al. 2000,−4.10 mL/g/s
same,logPS(obs),[8],−4.00 mL/g/s
same,logPo^PAMPA,,−2.72
Cn1c(=O)c2[nH]cnc2n(C)c1=O [theophylline],logPS(obs),[7]; mouse ref Murakami et al. 2000,−3.26 mL/g/s
same,logPS(obs),[5]; rat ref Liu et al. 2004,−2.90 mL/g/s
same,logPS(obs),[5]; rat ref Murakami et al. 2000,−2.81 mL/g/s
same,logPo^PAMPA,[3]; ref Avdeef et al. 2006,−5.99
O=C1NC(=O)C(c2ccccc2)(c2ccccc2)N1 [phenytoin],logPS(obs),[5]; rat ref Liu et al. 2004,−2.20 mL/g/s
same,logPS(obs),[5]; [10],−2.07 mL/g/s
same,logPS(obs),[8],−2.30 mL/g/s
same,logPo^PAMPA,[3]; ref Ruell et al. 2004,−4.32
CN1CC(=O)NC1=N [creatinine],logPS(obs),[9]; i.v. ref Levin 1980,−4.55 mL/g/s and −4.70 mL/g/s
same,logPo^PAMPA,,−7.52
CCCN1C[C@H](C)N([C@H](c2ccc(C(=O)N(CC)CC)cc2)c2cccc(OC)c2)C[C@H]1C [SNC121],logPS(obs),"[7]; mouse, in vivo",−1.44 mL/g/s
same,Pgp effect ratios,[6]; compounds with down-step in rank classification for wild-type PS values (Fig. 3),8.6
same,logPo^PAMPA,,−1.24
N[C@@H](Cc1ccc(F)cc1)C(=O)O [p-F-L-phenylalanine],Pgp Effect,[6],1.1
CC[C@]1(O)C[C@@H]2CN(CCc3c([nH]c4ccccc34)[C@@](C(=O)OC)(c3cc4c(cc3OC)N(C)[C@H]3[C@@](O)(C(=O)OC)[C@H](OC(C)=O)[C@]5(CC)C=CCN6CC[C@]43[C@@H]65)C2)C1 [vinblastine],logPS(obs),[7]; mouse ref Murakami et al. 2000,−3.32 mL/g/s
same,logPS(obs),"[7]; mouse, GF120918, footnote v ref Cisternino et al. 2004",−3.25 mL/g/s
same,logPS(obs),"[7]; mouse, mdr1a(−/−)+GF120918 ref Cisternino et al. 2001",−3.12 mL/g/s
same,logPS(obs),[5]; rat ref Greig et al. 1990,−3.27 mL/g/s
same,logPS(obs),"[5]; rat, PSC833 ref Cisternino et al. 2003",−3.36 mL/g/s
same,logPo^PAMPA,,−0.42
O=C1CC2(CCCC2)CC(=O)N1CCCCN1CCN(c2ncccn2)CC1 [buspirone],Pgp Mutant Kin,"[2]; CF-1, mouse, 1 µM",341 mL/100g/min
same,Pgp Effect,[6],1.0
same,Wild-Type Kin,[4],325 mL/100g/min
COc1ccc2c3c1O[C@H]1C[C@@H](O)C=C[C@@]31CCN(C)C2 [galanthamine],Pgp Effect,[1],1.1
same,logPS(obs),[2]; mouse,−2.46 mL/g/s
same,Pgp Mutant Kin,[2]; mouse,20 mL/100g/min
same,logPo^PAMPA,,−3.15
COc1ccc(Cl)cc1C(=O)NCCc1ccc(S(=O)(=O)NC(=O)NC2CCCCC2)cc1 [glibenclamide],logPS(obs),[7]; mouse ref Murakami et al. 2000,−3.27 mL/g/s
same,logPS(obs),[5]; rat ref Murakami et al. 2000,−2.77 mL/g/s
same,logPo^PAMPA,[3]; ref Bendels et al. 2006,−2.54
NC(=O)N1c2ccccc2C=Cc2ccccc21 [carbamazepine],Pgp Mutant Kin,"[2]; CF-1, mouse, 1 µM",184 mL/100g/min
same,logPS(obs),"[2]; CF-1, mouse, 1 µM",−1.26 mL/g/s
same,logPS(obs),[5]; [10],−1.75 mL/g/s
same,Pgp Effect,[6],1.1
same,Wild-Type Kin,[4],173 mL/100g/min
same,logPo^PAMPA,,−3.73
Cc1cn([C@H]2C[C@H](N=[N+]=[N-])[C@@H](CO)O2)c(=O)[nH]c1=O [zidovudine],logPS(obs),[9]; i.v. ref Wu et al. 1998,−3.99 mL/g/s
same,logPo^PAMPA,,−5.79
CCCN(CCC)S(=O)(=O)c1ccc(C(=O)O)cc1 [probenecid],Pgp Mutant Kin,"[2]; CF-1, mouse, 1 µM",0.098 mL/100g/min
same,logPS(obs),"[2]; CF-1, mouse, 1 µM",−4.79 mL/g/s
same,logPo^PAMPA,[3]; ref Ruell et al. 2004,−1.83
same,Pgp Effect,[6],1.4
same,Wild-Type Kin,[4],0.069 mL/100g/min
CC(C)[C@H](NC(=O)[C@H](CCC(=O)O)NC(=O)[C@H](Cc1ccccc1)NC(=O)[C@@H](C)NC(=O)[C@@H](N)Cc1ccc(O)cc1)C(=O)N[C@H](C(=O)NCC(N)=O)C(C)C [deltorphin II],logPS(obs),"[7]; mouse, in vivo",−4.36 mL/g/s
same,logPo^PAMPA,,−6.37
Oc1ccc2c3c1O[C@H]1c4[nH]c5ccccc5c4C[C@@]4(O)[C@@H](C2)N(CC2CC2)CC[C@]314 [naltrindole],logPS(obs),"[7]; mouse, in vivo",−1.98 mL/g/s
same,logPo^PAMPA,,−0.94
NCC1(CC(=O)O)CCCCC1 [gabapentin],Pgp Effect,[1],1.7
same,logPS(obs),[2]; mouse,−2.34 mL/g/s
same,Pgp Mutant Kin,[2]; mouse,26 mL/100g/min
same,logPS(obs),"[5]; rat, in vivo",−2.56 mL/g/s
same,logPo^PAMPA,,−3.36
N[C@H](Cc1ccc(F)cc1)C(=O)O [p-F-D-phenylalanine],Pgp Effect,[6],1.1
CC(C)(C)NC(=O)[C@@H]1C[C@@H]2CCCC[C@@H]2CN1C[C@@H](O)[C@H](Cc1ccccc1)NC(=O)[C@H](CC(N)=O)NC(=O)c1ccc2ccccc2n1 [saquinavir],Pgp Mutant Kin,"[2]; CF-1, mouse, 1 µM",11 mL/100g/min
same,logPS(obs),"[2]; CF-1, mouse, 1 µM",−2.73 mL/g/s
same,Wild-Type Kin,[4],2.9 mL/100g/min
same,logPo^PAMPA,,−3.69
